Source: patent publication US20080207683A1, “BIARYL-S[…]-PYRAZOLO-PYRIDINE MODULATORS OF CATHEPSIN S” (priority 2007, published 2008)
pKi: −log10 of the molar value. Like-named read-outs stand apart in the source and are kept apart here.

Molecular target: T1, Human CatS (Homo sapiens, UniProt P25774)
T1 construct: made in house; host or cells: Sf9 insect cells (baculovirus vector pFB+HT)
Experiment: CatS inhibition of hydrolysis of fluorescent substrate Z-Val-Val-Arg-AFC
Assay type: biochemical
Procedure: Human CatS was cloned into pFB+HT (from Stratagene clone), expressed in Sf9 cells, and purified over a Ni column. Fractions were concentrated and activated at pH 4.0 for 6 hr and then purified over a thiopropylsepharose column and eluted with 1×TBS, 500 mM NaCl, 1 mM EDTA, 25 mM DTT pH 7.6. Glycerol (50%) was added in a 1:1 (vol/vol) ratio (25% glycerol final) and protein was stored at −80° C. in 5 μL aliquots. […] The increase in fluorescence over time was monitored using λexcitation=400 nm and λemission=505 nm.
In equation 1, v is the initial rate measured in the presence of [I]0, the inhibitor concentration, using an enzyme concentration [E]0. v0 is the initial rate measured in the absence of inhibitor.

[1] = apparent Ki, Morrison equation fit of initial rates, 10 μM Z-Val-Val-Arg-AFC, pH 5.0, 1.5 nM CatS, read-out: CatS Ki^app

T1 sequence (P25774 115-331): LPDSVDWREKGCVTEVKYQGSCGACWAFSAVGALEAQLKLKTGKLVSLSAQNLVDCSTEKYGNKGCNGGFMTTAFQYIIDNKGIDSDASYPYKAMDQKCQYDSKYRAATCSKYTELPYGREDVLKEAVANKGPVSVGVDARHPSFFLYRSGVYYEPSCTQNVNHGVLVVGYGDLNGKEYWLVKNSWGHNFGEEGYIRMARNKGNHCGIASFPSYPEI

SMILES	pKi [1]	pKi
Cc1ccc(NCCNC(=O)c2cccc(-c3cc(-c4nn(CCCN5CCCC5)c5c4CN(S(C)(=O)=O)CC5)ccc3Cl)c2)cc1 [Example 2, 2′-Chloro-5′-[5-methanesulfonyl-1-(3-pyrrolidin-1-yl-propyl)-4,5,6,7-tetrahydro-1H-pyrazolo[4,3-c]pyridin-3-yl]-biphenyl-3-carboxylic acid (2-p-tolylamino-ethyl)-amide]	6.46	–
CS(=O)(=O)N1CCc2c(c(-c3ccc(Cl)c(-c4cccc(C(=O)NCCNc5cccc6c5CCC6)c4)c3)nn2CCCN2CCCC2)C1 [Example 3, 2′-Chloro-5′-[5-methanesulfonyl-1-(3-pyrrolidin-1-yl-propyl)-4,5,6,7-tetrahydro-1H-pyrazolo[4,3-c]pyridin-3-yl]-biphenyl-3-carboxylic acid [2-(indan-4-ylamino)-ethyl]-amide]	6.48	–
COc1ccc(NCCNC(=O)c2cccc(-c3cc(-c4nn(CCCN5CCCC5)c5c4CN(S(C)(=O)=O)CC5)ccc3Cl)c2)cc1Cl [Example 4, 2′-Chloro-5′-[5-methanesulfonyl-1-(3-pyrrolidin-1-yl-propyl)-4,5,6,7-tetrahydro-1H-pyrazolo[4,3-c]pyridin-3-yl]-biphenyl-3-carboxylic acid [2-(3-chloro-4-methoxy-phenylamino)-ethyl]-amide]	6.60	–
COc1ccc(NCCNC(=O)c2cccc(-c3cc(-c4nn(CCCN5CCCC5)c5c4CN(S(C)(=O)=O)CC5)ccc3Cl)c2)cn1 [Example 6, 2′-Chloro-5′-[5-methanesulfonyl-1-(3-pyrrolidin-1-yl-propyl)-4,5,6,7-tetrahydro-1H-pyrazolo[4,3-c]pyridin-3-yl]-biphenyl-3-carboxylic acid [2-(6-methoxy-pyridin-3-ylamino)-ethyl]-amide]	6.50	–
CS(=O)(=O)N1CCc2c(c(-c3ccc(Cl)c(-c4cccc(C(=O)NCCNc5cccnc5)c4)c3)nn2CCCN2CCCC2)C1 [Example 7, 2′-Chloro-5′-[5-methanesulfonyl-1-(3-pyrrolidin-1-yl-propyl)-4,5,6,7-tetrahydro-1H-pyrazolo[4,3-c]pyridin-3-yl]-biphenyl-3-carboxylic acid [2-(pyridin-3-ylamino)-ethyl]-amide]	6.06	–
CS(=O)(=O)N1CCc2c(c(-c3ccc(Cl)c(-c4cccc(C(=O)NCc5cc6ccccc6[nH]5)c4)c3)nn2CCCN2CCCC2)C1 [Example 13, 2′-Chloro-5′-[5-methanesulfonyl-1-(3-pyrrolidin-1-yl-propyl)-4,5,6,7-tetrahydro-1H-pyrazolo[4,3-c]pyridin-3-yl]-biphenyl-3-carboxylic acid (1H-indol-2-ylmethyl)-amide]	–	6.48
CS(=O)(=O)N1CCc2c(c(-c3ccc(Cl)c(-c4cccc(C(=O)NCc5cccs5)c4)c3)nn2CCCN2CCCC2)C1 [Example 14, 2′-Chloro-5′-[5-methanesulfonyl-1-(3-pyrrolidin-1-yl-propyl)-4,5,6,7-tetrahydro-1H-pyrazolo[4,3-c]pyridin-3-yl]-biphenyl-3-carboxylic acid (thiophen-2-ylmethyl)-amide]	6.46	–
COc1ccc(CNC(=O)c2cccc(-c3cc(-c4nn(CCCN5CCCC5)c5c4CN(S(C)(=O)=O)CC5)ccc3Cl)c2)cc1 [Example 15, 2′-Chloro-5′-[5-methanesulfonyl-1-(3-pyrrolidin-1-yl-propyl)-4,5,6,7-tetrahydro-1H-pyrazolo[4,3-c]pyridin-3-yl]-biphenyl-3-carboxylic acid 4-methoxy-benzylamide]	–	6.35
CS(=O)(=O)N1CCc2c(c(-c3ccc(Cl)c(-c4cccc(C(=O)NCc5nccs5)c4)c3)nn2CCCN2CCCC2)C1 [Example 19, 2′-Chloro-5′-[5-methanesulfonyl-1-(3-pyrrolidin-1-yl-propyl)-4,5,6,7-tetrahydro-1H-pyrazolo[4,3-c]pyridin-3-yl]-biphenyl-3-carboxylic acid (thiazol-2-ylmethyl)-amide]	6.57	–
Cc1ccc2[nH]c([C@H](C)NC(=O)c3cccc(-c4cc(-c5nn(CCCN6CCCC6)c6c5CN(S(C)(=O)=O)CC6)ccc4Cl)c3)nc2c1 [Example 20, (S)-2′-Chloro-5′-[5-methanesulfonyl-1-(3-pyrrolidin-1-yl-propyl)-4,5,6,7-tetrahydro-1H-pyrazolo[4,3-c]pyridin-3-yl]-biphenyl-3-carboxylic acid [1-(5-methyl-1H-benzoimidazol-2-yl)-ethyl]-amide]	–	6.73

More lines, in order of rising pKi [1], values ahead:

pKi [1]	pKi	SMILES
6.62	–	CS(=O)(=O)N1CCc2c(c(-c3ccc(Cl)c(-c4cccc(C(=O)NCc5ncco5)c4)c3)nn2CCCN2CCCC2)C1 [Example 12, 2′-Chloro-5′-[5-methanesulfonyl-1-(3-pyrrolidin-1-yl-propyl)-4,5,6,7-tetrahydro-1H-pyrazolo[4,3-c]pyridin-3-yl]-biphenyl-3-carboxylic acid (oxazol-2-ylmethyl)-amide]
6.62	–	CS(=O)(=O)N1CCc2c(c(-c3ccc(Cl)c(-c4cccc(C(=O)NCCN5CCc6cc(F)ccc65)c4)c3)nn2CCCN2CCCC2)C1 [Example 8, 2′-Chloro-5′-[5-methanesulfonyl-1-(3-pyrrolidin-1-yl-propyl)-4,5,6,7-tetrahydro-1H-pyrazolo[4,3-c]pyridin-3-yl]-biphenyl-3-carboxylic acid [2-(5-fluoro-2,3-dihydro-indol-1-yl)-ethyl]-amide]
6.86	–	C[C@@H](CN1CCc2cc(F)ccc21)NC(=O)c1cccc(-c2cc(-c3nn(CCCN4CCCC4)c4c3CN(S(C)(=O)=O)CC4)ccc2Cl)c1 [Example 9, (S)-2′-Chloro-5′-[5-methanesulfonyl-1-(3-pyrrolidin-1-yl-propyl)-4,5,6,7-tetrahydro-1H-pyrazolo[4,3-c]pyridin-3-yl]-biphenyl-3-carboxylic acid [2-(5-fluoro-2,3-dihydro-indol-1-yl)-1-methyl-ethyl]-amide]
6.87	–	CN(C)S(=O)(=O)c1ccc2c(c1)N(CCNC(=O)c1cccc(-c3cc(-c4nn(CCCN5CCCC5)c5c4CN(S(C)(=O)=O)CC5)ccc3Cl)c1)CC2 [Example 11, 2′-Chloro-5′-[5-methanesulfonyl-1-(3-pyrrolidin-1-yl-propyl)-4,5,6,7-tetrahydro-1H-pyrazolo[4,3-c]pyridin-3-yl]-biphenyl-3-carboxylic acid [2-(6-dimethylsulfamoyl-2,3-dihydro-indol-1-yl)-ethyl]-amide]
6.90	–	CCC(NC(=O)c1cccc(-c2cc(-c3nn(CCCN4CCCC4)c4c3CN(S(C)(=O)=O)CC4)ccc2Cl)c1)c1nc2cc(C)ccc2[nH]1 (stereo not drawn) [Example 17, 2′-Chloro-5′-[5-methanesulfonyl-1-(3-pyrrolidin-1-yl-propyl)-4,5,6,7-tetrahydro-1H-pyrazolo[4,3-c]pyridin-3-yl]-biphenyl-3-carboxylic acid [1-(5-methyl-1H-benzoimidazol-2-yl)-propyl]-amide]
7.07	–	COc1ccc(NCCNC(=O)c2cccc(-c3cc(-c4nn(CCCN5CCCC5)c5c4CN(S(C)(=O)=O)CC5)ccc3Cl)c2)cc1 [Example 1, 2′-Chloro-5′-[5-methanesulfonyl-1-(3-pyrrolidin-1-yl-propyl)-4,5,6,7-tetrahydro-1H-pyrazolo[4,3-c]pyridin-3-yl]-biphenyl-3-carboxylic acid [2-(4-methoxy-phenylamino)-ethyl]-amide]
7.15	–	CS(=O)(=O)N1CCc2c(c(-c3ccc(Cl)c(-c4cccc(C(=O)NCc5nc6cc(Cl)ccc6[nH]5)c4)c3)nn2CCCN2CCCC2)C1 [Example 21, 2′-Chloro-5′-[5-methanesulfonyl-1-(3-pyrrolidin-1-yl-propyl)-4,5,6,7-tetrahydro-1H-pyrazolo[4,3-c]pyridin-3-yl]-biphenyl-3-carboxylic acid (5-chloro-1H-benzoimidazol-2-ylmethyl)-amide]
7.22	–	CS(=O)(=O)N1CCc2c(c(-c3ccc(Cl)c(-c4cccc(C(=O)NCCNc5ccc(OCC6CCCC6)cc5)c4)c3)nn2CCCN2CCCC2)C1 [Example 5, 2′-Chloro-5′-[5-methanesulfonyl-1-(3-pyrrolidin-1-yl-propyl)-4,5,6,7-tetrahydro-1H-pyrazolo[4,3-c]pyridin-3-yl]-biphenyl-3-carboxylic acid [2-(4-cyclopentylmethoxy-phenylamino)-ethyl]-amide]
7.31	–	CN(C)S(=O)(=O)c1cccc2c1N(CCNC(=O)c1cccc(-c3cc(-c4nn(CCCN5CCCC5)c5c4CN(S(C)(=O)=O)CC5)ccc3Cl)c1)CC2 [Example 10, 2′-Chloro-5′-[5-methanesulfonyl-1-(3-pyrrolidin-1-yl-propyl)-4,5,6,7-tetrahydro-1H-pyrazolo[4,3-c]pyridin-3-yl]-biphenyl-3-carboxylic acid [2-(7-dimethylsulfamoyl-2,3-dihydro-indol-1-yl)-ethyl]-amide]
7.62	–	Cc1ccc2[nH]c(C(C)NC(=O)c3cccc(-c4cc(-c5nn(CCCN6CCCC6)c6c5CN(S(C)(=O)=O)CC6)ccc4Cl)c3)nc2c1 (stereo not drawn) [Example 16, 2′-Chloro-5′-[5-methanesulfonyl-1-(3-pyrrolidin-1-yl-propyl)-4,5,6,7-tetrahydro-1H-pyrazolo[4,3-c]pyridin-3-yl]-biphenyl-3-carboxylic acid [1-(5-methyl-1H-benzoimidazol-2-yl)-ethyl]-amide]
7.65	–	CC(NC(=O)c1cccc(-c2cc(-c3nn(CCCN4CCCC4)c4c3CN(S(C)(=O)=O)CC4)ccc2Cl)c1)c1nc2ccccc2[nH]1 (stereo not drawn) [Example 18, 2′-Chloro-5′-[5-methanesulfonyl-1-(3-pyrrolidin-1-yl-propyl)-4,5,6,7-tetrahydro-1H-pyrazolo[4,3-c]pyridin-3-yl]-biphenyl-3-carboxylic acid [1-(1H-benzoimidazol-2-yl)-ethyl]-amide]
